Entries after “also recorded” stand apart in the source; their conditions may differ. Where two headings read alike, the source gives them in different places.
Key:
Format in all cases: biochemical, E. coli
resolved E1 [1] = target: T1, resolved E1 (Escherichia coli, UniProt P0AFG8); assay: Inactivation of resolved E1 component (activity after reconstitution with E2-E3 subcomplex); details: for remaining activity at 3700 µM: 3.7 mM inhibitor; for remaining activity at 500 µM: 15 min, read-out: residual activity of E1; for residual activity of E1: conditions as for fluorescence analysis
T1 construct: made in house; host or cells: resolved from PDHc expressed in E. coli JRG1342
Procedure: Resolution of the E1 component from PDHc. […] PDHc was dialyzed against 50 mM Tris buffer, pH 9.0, containing 0.1 mM benzamidine.HCl, 0.15 M NaCl, 0.1 mM PMSF for 2 h, before applying to a column equilibrated and eluted with the same buffer.
(§1) Activity and related measurements on PDHc. The overall enzymatic reaction of the PDH complex was assayed using a Varian DMS 300 spectrophotometer or the Cobas Bio (Roche Diagnostics, Somerville, N.J.) automated centrifugal analyzer, monitoring the pyruvate-dependent reduction of NAD^+ at 340 nm. The reaction medium contained in 1 mL (DMS 300) or 0.25 mL (Cobas-Bio) test volume: 0.1 M Tris-HCl, pH 8.0; 1 mM MgCl2; 2 mM sodium pyruvate; 2.5 mM NAD^+; 0.052-0.2 mM coenzyme A; 0.2 mM ThDP; and 2.6 mM DTT at 27° C. The reaction was initiated either by adding enzyme to a mixture of all other components, or by adding CoA.
One unit of activity is defined as the amount of NADH produced (μmol) per min per mg protein. The activity of resolved E1 was measured after reconstitution with excess E2-E3 subcomplex using the NADH assay for PDHc activity.
Inactivation of 1-lip and 3-lip PDH complexes and resolved E1 component by 2-oxo-3-alkynoic acids. Intact 1-lip or 3-lip PDH complexes (0.050-0.1 mg) or resolved E1 component (0.05-0.09 mg) were incubated in the dark with 5 mM MgCl2, […] of 2-oxo-3-alkynoic acids in 20 mM KH2 PO4 buffer, pH 7.5 at room temperature in a total volume 0.5 mL. The initial activity (100%) was assayed prior to the addition of 2-oxo-3-alkynoic acids. Samples (50 μL) were withdrawn periodically and diluted into 1 mL of assay solution, containing all components necessary for assay of the overall activity. The activity of untreated enzyme was stable during the time of inactivation.

resolved E1 [2] = target: T1, resolved E1; assay: Non-oxidative formation of acetoin and acetolactate by resolved E1
Procedure: Assay for the non-oxidative formation of acetoin and acetolactate by resolved E1. The reaction mixture contained in 0.8 mL of 50 mM KH2 PO4 buffer, pH 7.5: ThDP (1 mM); MgCl2 (2 mM); pyruvate (2 mM) and resolved E1 (0.04-0.1 mg). After 2 h at 37° C. the reaction was stopped by the addition of either 0.1 mL of 2.5 N NaOH (acetoin assay), or 0.02 mL of 6 N HCl (acetolactate assay), according to Kuwana et al. (1968). Tubes for acetolactate measurement were incubated for an additional 2 h at 37° C. to decarboxylate the acetolactate to acetoin. Acetoin was determined according to Westerfeld (1945). The activity is defined as nmoles of acetoin formed per min per mg protein.

E2-E3 subcomplex = target: T2, E2-E3 subcomplex (Escherichia coli, UniProt P06959+P0A9P0); assay: Preincubation of E2-E3 subcomplex with inhibitor, reconstitution with unmodified E1; details: up to 20 min preincubation, unmodified E1 added
T2 construct: made in house; host or cells: resolved from PDHc expressed in E. coli JRG1342
Procedure: as §1
When the E2-E3 subcomplex was preincubated for different times (up to 20 min) with 2-oxo-3-butynoic acid, followed by dilution into a reaction mixture containing all components of the PDHc assay including unmodified E1 component, 100% of the activity could be reconstituted. In contrast, when resolved E1 was treated with inhibitors for different time periods before reconstitution with unmodified E2-E3 complex, a time-dependent decrease in the overall activity was observed (see FIG. 1B for resolved E1 reacted with 2-oxo-3-butynoic acid).

[3] = target: T3, C259N variant of 1-lip PDHc (Escherichia coli, UniProt P0AFG8, C260N); assay: Inactivation of C259N variant of 1-lip PDHc; details: butynoic acid at 1 mM
T3 construct: made in house; host or cells: E. coli JRG1342 (PDHc null), Ptac plasmid pGS596
Procedure: FIG. 6. Inactivation of 1-lip PDHc and its C259N and C259S variants by 2-oxo-3-butynoic acid. 1-lip PDHc (0.162 mg/mL) or the C259N and C259S variants of 1-lip PDHc (0.162 mg/mL) in 20 mM KH2 PO4 buffer, pH 7.5, containing 1 mM ThDP and 5 mM MgCl2 were incubated in the absence (curve 1: 1-lip PDHc and C259N variant) or in the presence of 1 mM of 2-oxo-3-butynoic acid (curve 2: the C259N variant; curve 3: 1-lip PDHc and the C259S variant) in a total volume 0.5 mL in the dark. At different times, aliquots of 50 μL were withdrawn and the overall activity was measured as described in FIG. 1A.
Bacterial strains and plasmids for PDHc. Derivatives of the PDHc null strain, E. coli JRG1342 contained Ptac expression plasmids encoding PDHc with E2 chains bearing three lipoyl domains (3-lip PDHc; pGS523, the wild type parental complex), or a single lipoyl domain in each E2 subunit (1-lip PDHc; pGS501), and variant 1-lip PDH complexes with mutations in the E1 gene leading to C259S (pGS457) and C259N (pGS596) substitutions (Machado et al., 1992; Machado, 1993).
Inactivation of 1-lip and 3-lip PDH complexes and resolved E1 component by 2-oxo-3-alkynoic acids. […]

[4] = E1 treated with 3.7 mM inhibitor, At = 11.5%
[5] = E1 with 11.5% overall activity remaining

T1 sequence (P0AFG8 2-887): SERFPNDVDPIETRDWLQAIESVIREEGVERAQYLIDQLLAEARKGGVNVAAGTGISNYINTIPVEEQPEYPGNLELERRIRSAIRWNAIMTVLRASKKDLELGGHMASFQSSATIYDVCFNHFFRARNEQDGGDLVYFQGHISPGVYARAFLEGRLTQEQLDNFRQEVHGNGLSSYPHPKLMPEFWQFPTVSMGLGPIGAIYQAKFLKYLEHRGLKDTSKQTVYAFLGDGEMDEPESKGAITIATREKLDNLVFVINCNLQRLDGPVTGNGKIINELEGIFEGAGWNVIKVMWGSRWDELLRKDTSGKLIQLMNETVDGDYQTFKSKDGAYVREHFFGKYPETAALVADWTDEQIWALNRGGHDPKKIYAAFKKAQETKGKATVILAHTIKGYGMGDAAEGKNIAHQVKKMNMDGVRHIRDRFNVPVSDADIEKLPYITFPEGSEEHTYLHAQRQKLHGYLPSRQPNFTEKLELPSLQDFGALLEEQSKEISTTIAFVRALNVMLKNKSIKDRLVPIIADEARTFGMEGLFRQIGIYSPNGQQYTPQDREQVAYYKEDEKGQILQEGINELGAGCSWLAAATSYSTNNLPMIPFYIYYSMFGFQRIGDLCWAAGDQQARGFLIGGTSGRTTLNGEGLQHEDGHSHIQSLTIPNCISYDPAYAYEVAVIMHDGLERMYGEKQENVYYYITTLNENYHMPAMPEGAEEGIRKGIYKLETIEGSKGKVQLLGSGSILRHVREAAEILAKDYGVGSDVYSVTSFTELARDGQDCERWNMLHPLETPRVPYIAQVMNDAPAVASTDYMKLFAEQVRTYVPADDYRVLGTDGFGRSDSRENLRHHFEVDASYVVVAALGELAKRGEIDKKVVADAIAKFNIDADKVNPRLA
T2 sequence (P0A9P0 2-474): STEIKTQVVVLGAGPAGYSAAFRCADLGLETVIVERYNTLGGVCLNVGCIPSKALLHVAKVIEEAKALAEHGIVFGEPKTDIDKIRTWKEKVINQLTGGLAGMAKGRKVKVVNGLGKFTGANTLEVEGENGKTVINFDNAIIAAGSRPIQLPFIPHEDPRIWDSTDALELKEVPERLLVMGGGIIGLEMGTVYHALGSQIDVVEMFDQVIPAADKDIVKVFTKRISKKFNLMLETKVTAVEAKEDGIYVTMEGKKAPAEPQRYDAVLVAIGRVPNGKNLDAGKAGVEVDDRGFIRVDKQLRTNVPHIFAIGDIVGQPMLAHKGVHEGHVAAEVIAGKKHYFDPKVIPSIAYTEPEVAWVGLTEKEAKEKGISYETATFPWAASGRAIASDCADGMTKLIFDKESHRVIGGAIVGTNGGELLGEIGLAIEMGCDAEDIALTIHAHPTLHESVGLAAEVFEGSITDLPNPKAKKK
T2 sequence (P06959 whole entry): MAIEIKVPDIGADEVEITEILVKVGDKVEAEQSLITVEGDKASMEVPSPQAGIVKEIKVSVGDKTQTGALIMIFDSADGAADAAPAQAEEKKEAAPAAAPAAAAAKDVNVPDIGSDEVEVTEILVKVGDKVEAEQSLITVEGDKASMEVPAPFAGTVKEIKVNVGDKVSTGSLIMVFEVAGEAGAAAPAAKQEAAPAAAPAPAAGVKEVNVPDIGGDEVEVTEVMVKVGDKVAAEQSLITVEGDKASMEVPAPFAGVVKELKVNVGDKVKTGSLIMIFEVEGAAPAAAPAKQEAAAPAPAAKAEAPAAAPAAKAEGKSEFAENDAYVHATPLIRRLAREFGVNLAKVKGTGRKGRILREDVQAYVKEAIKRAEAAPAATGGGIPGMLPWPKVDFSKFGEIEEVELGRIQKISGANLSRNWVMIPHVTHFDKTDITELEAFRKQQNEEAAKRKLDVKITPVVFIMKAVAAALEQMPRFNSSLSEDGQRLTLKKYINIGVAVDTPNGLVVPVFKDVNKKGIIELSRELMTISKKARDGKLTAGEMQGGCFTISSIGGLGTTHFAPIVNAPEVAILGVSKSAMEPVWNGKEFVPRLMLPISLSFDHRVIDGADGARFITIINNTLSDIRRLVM
T3 sequence (P0AFG8 2-887 C260N): as the sequence (P0AFG8 2-887) above, with C259N counted along it

## C#CC(=O)C(=O)O [2-oxo-3-butynoic acid, 2-Oxo-3-butynoic acid]
Resolved E1 [1]
  residual activity of E1 used for SH titration: 10%
Resolved E1 [1]; 0.11 mM inhibitor
  k for inactivation of E1: 1.73 min⁻¹
Resolved E1 [1]; 0.5 mM inhibitor, 20 min, 1 mM ThDP, 5 mM MgCl2
  inhibition at 500 µM: ~68%
Resolved E1 [1]; after G-25 chromatography, read-out: residual activity of resolved E1 in the overall reaction (At)
  remaining activity at 3700 µM: 11.5%
Resolved E1 [1]; 5 mM DTT added at At = 30%, after 60 min
  At after addition of DTT to previously inactivated E1: 40%
Resolved E1 [1]; 5 mM pyruvate, 1 mM ThDP, 5 mM MgCl2
  protection of E1 component from modification by pyruvate: completely protected
Resolved E1 [1]; 0.2, 0.5 and 1 M hydroxylamine, neutral pH, 100 min or 15 h
  reactivation of inactivated E1 by hydroxylamine: failed to restore activity; also recorded: failure to reactivate
Resolved E1 [1]; 0.5 mM inhibitor, absence of DTT
  remaining activity at 500 µM: ~30%
Resolved E1 [1]; 0.5 mM inhibitor, presence of 5 mM DTT
  remaining activity at 500 µM: 63%
Resolved E1 [1]; E1 1.5 mg/mL, 0.1 mM ThDP, 1 mM MgCl2, read-out: E1 activity remaining before chromatography
  remaining activity at 3700 µM: 16%
Resolved E1 [1]; E1 treated with 3.7 mM inhibitor, At = 11.5%, after G-25
  Pyruvate:NAD+-oxidoreductase reaction: 0.343 ± 0.023 μmol/min/mg protein
Resolved E1 [1]; absence of added ThDP
  residual activity of E1: 78-90%
Resolved E1 [1]; presence of ThDP
  residual activity of E1: 40%
Resolved E1 [1]; dissociation constant for initial reversible complex
  Ki: 8.5 µM
Resolved E1 [1]; rate constant at saturating inhibitor, resolved E1, read-out: ki E1 (converted)
  kinact: 0.0298 s⁻¹
Resolved E1 [1]; read-out: ki/Ki E1
  kinact/KI: 3500 M⁻¹ s⁻¹
Resolved E1 [1]; resolved E1, 0.11 mM inhibitor
  kapp, slow phase of inactivation: 0.039 min⁻¹
Resolved E1 [1]; resolved E1, 1.1 mM inhibitor
  kapp, slow phase of inactivation: 0.078 min⁻¹
Resolved E1 [2]; [4]
  Acetoin production: 1.52 ± 0.08 nmol/min/mg protein
  Acetolactate production: 0.51 ± 0.083 nmol/min/mg protein
Resolved E1 [2]; [5]
  Acetoin production relative to uninhibited E1: 30%
  Acetolactate production relative to uninhibited E1: 36%
E2-E3 subcomplex
  activity reconstituted after preincubation of E2-E3 subcomplex with inhibitor: 100%
[3]
  inactivation of C259N variant: inactivated
